Here are results for 40 compounds from ChEMBL document CHEMBL3039007, “Structure-based identification of OATP1B1/3 inhibitors” (Mol Pharmacol, 2013).

Series [1] addresses T1, Solute carrier organic anion transporter family member 1B1 (Homo sapiens, UniProt Q9Y6L6).
T1 sequence (Q9Y6L6 whole entry): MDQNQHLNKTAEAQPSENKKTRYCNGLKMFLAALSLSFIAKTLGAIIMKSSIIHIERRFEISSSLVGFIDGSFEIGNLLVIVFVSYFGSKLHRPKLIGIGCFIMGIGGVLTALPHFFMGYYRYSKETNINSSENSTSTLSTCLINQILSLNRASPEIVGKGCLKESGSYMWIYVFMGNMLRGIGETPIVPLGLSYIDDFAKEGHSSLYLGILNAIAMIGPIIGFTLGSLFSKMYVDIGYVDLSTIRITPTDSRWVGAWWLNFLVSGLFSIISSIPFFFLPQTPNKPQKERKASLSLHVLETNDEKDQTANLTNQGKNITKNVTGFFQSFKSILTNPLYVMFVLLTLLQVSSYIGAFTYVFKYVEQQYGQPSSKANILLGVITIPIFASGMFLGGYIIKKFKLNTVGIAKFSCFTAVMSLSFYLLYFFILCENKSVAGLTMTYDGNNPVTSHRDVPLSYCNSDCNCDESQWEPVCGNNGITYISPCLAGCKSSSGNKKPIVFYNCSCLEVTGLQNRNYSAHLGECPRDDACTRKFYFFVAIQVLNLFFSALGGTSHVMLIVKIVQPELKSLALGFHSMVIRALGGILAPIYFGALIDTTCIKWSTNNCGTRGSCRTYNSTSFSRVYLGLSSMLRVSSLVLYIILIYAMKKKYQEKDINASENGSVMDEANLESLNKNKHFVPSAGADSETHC
Conditions: chinese hamster, cho, 10 µM.

The target in series [2] is T2, Solute carrier organic anion transporter family member 1B3 (Homo sapiens, UniProt Q9NPD5).
T2 sequence (Q9NPD5 whole entry): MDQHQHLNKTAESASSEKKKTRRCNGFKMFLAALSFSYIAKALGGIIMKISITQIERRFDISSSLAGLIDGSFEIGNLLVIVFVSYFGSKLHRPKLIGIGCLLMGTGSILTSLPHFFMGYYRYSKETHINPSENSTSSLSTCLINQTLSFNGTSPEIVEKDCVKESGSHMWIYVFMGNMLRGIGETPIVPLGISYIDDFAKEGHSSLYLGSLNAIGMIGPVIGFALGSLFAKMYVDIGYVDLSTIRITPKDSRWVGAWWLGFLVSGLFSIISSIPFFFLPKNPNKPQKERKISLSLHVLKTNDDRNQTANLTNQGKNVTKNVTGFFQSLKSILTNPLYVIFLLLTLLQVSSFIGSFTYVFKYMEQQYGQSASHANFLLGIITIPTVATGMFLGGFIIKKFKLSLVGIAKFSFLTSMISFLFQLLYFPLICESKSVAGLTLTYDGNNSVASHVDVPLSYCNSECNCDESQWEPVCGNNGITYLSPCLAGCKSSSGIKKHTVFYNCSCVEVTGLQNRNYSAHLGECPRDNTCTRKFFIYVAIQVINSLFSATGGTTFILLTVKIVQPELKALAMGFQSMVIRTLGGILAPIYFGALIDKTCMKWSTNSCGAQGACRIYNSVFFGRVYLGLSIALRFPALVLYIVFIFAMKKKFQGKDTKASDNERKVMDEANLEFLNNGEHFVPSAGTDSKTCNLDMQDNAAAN
Conditions: chinese hamster, cho, 10 µM.

Residues, ends and D or L forms follow the SMILES beside them.

With `O=C(O)c1cc2cc(Cl)ccc2[nH]1` [5-CHLOROINDOLE-2-CARBOXYLIC ACID], the residual activity is recorded as 75.02% in series [1] and 91.36% in series [2].
For `O=C1C=C2CC3(O)COc4cc(O)ccc4C3=C2C=C1O` (stereo not given) [BRAZILEIN], in that order: 96.33% and 95.51%.
In the same order, the values of `COc1cc([C@@H]2c3cc4c(cc3[C@@H](O)[C@H]3COC(=O)[C@H]23)OCO4)cc(OC)c1O` [4'-DEMETHYLEPIPODOPHYLLOTOXIN] are 42.52% and 69.62%.
For `O=C1CN(/N=C/c2ccc(-c3ccc([N+](=O)[O-])cc3)o2)C(=O)[N-]1.[Na+]` [DANTROLENE SODIUM], in that order: 111.7% and 114.3%.
Consider `CCCCCCCCCCCCCCCCCCOCC(O)CO` (stereo not given) [BATILOL], for which the results for the residual activity in series [1] and in series [2] were 92.94% and 108.3%, respectively.
In the same order, the values of `N[C@@H]1C[C@H]1c1ccccc1.N[C@H]1C[C@@H]1c1ccccc1.O=S(=O)(O)O` [TRANYLCYPROMINE SULFATE] are 73.89% and 84.19%.
For the compound `O=C1O[C@H]([C@@H](O)CO)C(O)=C1O` [ASCORBIC ACID], the results for the residual activity in series [1] and in series [2] were 84.23% and 96.05%, respectively.
For `[O-][n+]1ccccc1[S][Zn][S]c1cccc[n+]1[O-]` [PYRITHIONE ZINC], in that order: 92.52% and 94.54%.
In the same order, the values of `CN1CCC(=C2c3ccccc3CC(=O)c3sccc32)CC1.O=C(O)/C=C/C(=O)O` [KETOTIFEN FUMARATE] are 94.79% and 89.36%.
For `CC(C)=CCC/C(C)=C/CC/C(C)=C/CO` [FARNESOL], in that order: 89.38% and 89.91%.
For `Nc1nccs1` [AMINOTHIAZOLE], the residual activity in series [1] is on record as 92.13%; in series [2], 76.59%.
For `CN[C@@H]1[C@H](O[C@H]2[C@H](O[C@H]3[C@H](O)[C@@H](O)[C@H](NC(=N)N)[C@@H](O)[C@@H]3NC(=N)N)O[C@@H](C)[C@]2(O)CO)O[C@@H](CO)[C@H](O)[C@H]1O.CN[C@@H]1[C@H](O[C@H]2[C@H](O[C@H]3[C@H](O)[C@@H](O)[C@H](NC(=N)N)[C@@H](O)[C@@H]3NC(=N)N)O[C@@H](C)[C@]2(O)CO)O[C@@H](CO)[C@H](O)[C@H]1O.O=S(=O)(O)O.O=S(=O)(O)O.O=S(=O)(O)O` [DIHYDROSTREPTOMYCIN SULFATE], in that order: 78.79% and 99.04%.
For `CC(C)(Oc1ccc(CCNC(=O)c2ccc(Cl)cc2)cc1)C(=O)O` [BEZAFIBRATE], in that order: 72.82% and 74.47%.
In the same order, the values of `OC[C@H]1O[C@@H](O[C@H]2[C@H](O)[C@@H](O)[C@@H](O)O[C@@H]2CO)[C@H](O)[C@@H](O)[C@@H]1O` [CELLBIOSE] are 90.6% and 109.6%.
As to `COc1cccc(-c2cc(=O)c3ccc(OC)cc3o2)c1` [7,3'-DIMETHOXYFLAVONE], the values for the residual activity in series [1] and in series [2] were 98.64% and 101.6%, respectively.
In the same order, the values of `CCCN1C[C@H](CSC)C[C@@H]2c3cccc4[nH]cc(c34)C[C@H]21.CS(=O)(=O)O` [PERGOLIDE MESYLATE] are 90.15% and 85.27%.
For `Cc1c(N(C)CS(=O)(=O)[O-])c(=O)n(-c2ccccc2)n1C.[Na+]` [DIPYRONE SODIUM], in that order: 72.95% and 89.51%.
Consider `OC[C@H]1O[C@@](CO)(O[C@H]2O[C@H](CO)[C@@H](O)[C@H](O)[C@H]2O)[C@@H](O[C@H]2O[C@H](CO)[C@@H](O)[C@H](O)[C@H]2O)[C@@H]1O` [MELEZITOSE], for which the residual activity stood at 99.1% in series [1] and 96.54% in series [2].
For `CC(C)c1ccc2c(c1O)CC[C@H]1C3=C(CC[C@]21C)C(=O)OC3` [TRIPTOPHENOLIDE], in that order: 120.3% and 110.8%.
In the same order, the values of `NC1(C(=O)O)CCC1` [1-AMINOCYCLOBUTANE CARBOXYLIC ACID] are 131.1% and 95.93%.
In the same order, the values of `CC(C)=CC1C(CO)C1(C)C` (stereo not given) [CHRYSANTHEMYL ALCOHOL] are 106.8% and 105.2%.
Regarding `COc1ccc(CCN2CCC(Nc3nc4ccccc4n3Cc3ccc(F)cc3)CC2)cc1` [ASTEMIZOLE], the residual activity in series [1] worked out at 127.5%; in series [2] it was 97.68%.
For `NC(=O)c1cnccn1` [PYRAZINAMIDE], in that order: 79.24% and 116.6%.
In the same order, the values of `CNC(=O)Oc1ccc2c(c1)[C@]1(C)CCN(C)[C@@H]1N2C` [PHYSOSTIGMINE] are 78.13% and 80.76%.
In the same order, the values of `OCc1c[nH]c2ccccc12` [INDOLE-3-CARBINOL] are 88.32% and 121.9%.
Take `COC1=CC(=O)C[C@@H](C)[C@]12Oc1c(Cl)c(OC)cc(OC)c1C2=O` [GRISEOFULVIN]: the results for the residual activity in series [1] and in series [2] were 65.59% and 97.62%, respectively.
Regarding `COc1cc(/C=C/CO)ccc1O` [CONIFERYL ALCOHOL], the residual activity is given as 49.7% in series [1] and 66.12% in series [2].
In the same order, the values of `CC(C)C[C@H](N)C(=O)N[C@@H](C)C(=O)O` [LEU-ALA] (H-Leu-Ala-OH) are 93.04% and 96.54%.
In the same order, the values of `CCCCSP(=O)(SCCCC)SCCCC` [S,S,S,-TRIBUTYLPHOSPHOROTRITHIOATE] are 125.7% and 111.8%.
For `CCCC(C)(COC(N)=O)COC(=O)NC(C)C` (stereo not given) [CARISOPRODOL], in that order: 106% and 103.8%.
`O=C(O)c1cc(O)c(=O)c2c(O)c(O)ccc2c1` [7-DESHYDROXYPYROGALLIN-4-CARBOXYLIC ACID]: the residual activity came out at 100.2% in series [1] and 69.89% in series [2].
In the same order, the values of `Cc1ccc(Cl)c(Nc2ccccc2C(=O)[O-])c1Cl.O.[Na+]` [MECLOFENAMATE SODIUM] are 77.28% and 87.03%.
For `Cc1cccc(C)c1NC(=O)C1CCCCN1C.Cl` (stereo not given) [MEPIVACAINE HYDROCHLORIDE], in that order: 96.31% and 96.16%.
With `CC(C)CCC[C@@H](C)[C@H]1CC[C@H]2[C@@H]3CC=C4CC(=O)CC[C@]4(C)[C@H]3CC[C@]12C` [CHOLEST-5-EN-3-ONE], the figures for the residual activity in series [1] and in series [2] were 119.6796% and 103.5%, respectively.
For `C=CCCCCCCCCCCC/C=C/C(O)COC(C)=O` (stereo not given) [DEHYDROAVOCATIN-1-ACETATE], in that order: 134.1% and 107.3%.
For `CC(=O)Nc1ccc(S(=O)(=O)Nc2ccc([N+](=O)[O-])cc2)cc1`, in that order: 61.58% and 88.89%.
`CCOC(=O)[N-]c1cn(N2CCOCC2)n[o+]1` [MOLSIDOMINE]: the residual activity in series [1] was determined as 70.9%; in series [2] it was 97.14%.
`CON.Cl` [METHOXYAMINE HYDROCHLORIDE]: the results for the residual activity in series [1] and in series [2] were 118.4% and 108.6%, respectively.
For the compound `NNCCc1ccccc1.O=S(=O)(O)O` [PHENELZINE SULFATE], the residual activity in series [1] is 91.37%; in series [2] it was 110.5%.
With `NC[C@H]1O[C@H](O[C@H]2[C@H](O[C@@H]3O[C@H](CO)[C@@H](O)[C@H]3O)[C@@H](O)[C@H](N)C[C@@H]2N)[C@H](N)[C@@H](O)[C@@H]1O.O=S(=O)(O)O`, the residual activity stood at 107.3% in series [1] and 98.01% in series [2].
